Measured values taken from patent US20020147155A1, “Prevention and treatment of endometriosis with aryl hydrocarbon receptor binding ligands” (priority 2001, published 2002).

Legend:
uterus = settings: animal experiment; cited from earlier work
endometriotic tissue = experiment: Surgically induced endometriosis (autotransplanted endometrial fragments) in cynomolgus monkeys, laparoscopy; format: in vivo, Macaca fascicularis; settings: for Endometriotic lesion diameter: control 11.4±1.6
Excerpt: Numerous animal models of endometriosis have been developed involving rabbits (Rock, J A et al., Intraocular endometrium in the rabbit as a model for endometriosis, Fertil. Steril. 59:232-35 [1993]), rodents (Sakura, Y et al., Histological studies on the therapeutic effect of sustained-release microspheres of a potent LHRH agonist (leuprorelin acetate) in an experimental endometriosis model in rats, Endocrinol. Jpn. 37:719-729 [1990]; Rajkumar, K et al., The rat as an animal model for endometriosis to examine recurrence of ectopic endometrial tissue after regression, Fertil. Steril. 53:921-25 [1990]; Sudo, K et al., Effects of TAP-144-SR, a sustained-release formulation of a potent GnRH agonist, on experimental endometriosis in the rat, Endocrinol. Jpn. […] Gynecol. […] Steril. […] An. Sci. 33 :P15 [1994]; Cummings, A M and Metcalf, J L, Induction of endometriosis in mice: a new model sensitive to estrogen, Reprod. Toxicol. 9:233-38 [1995]; Cummings, A M et al., Promotion of endometriosis by 2,3,7,8-tetrachlorodibenzo-p-dioxin in rats and mice: time-dose dependence and species comparison, Toxicol. Appl. Pharmacol. 138:131-39 [1996]; Foster, W G et al., Morphologic characteristics of endometriosis in the mouse model: application to toxicology, Can. J. Physiol. Pharmacol. 75:1188-96 [1997]; Aoki, D et al., Successful heterotransplantation of human endometrium in SCID mice, Obstet. Gynecol. 83:220-28 [1994]; Bruner, K L et al., Suppression of matrix metalloproteinases inhibits establishment of ectopic lesions by human endometrium in nude mice, J. Clin. Invest. 99:2851-57 [1997]), and non-human primates (Schenken, R S et al., Etiology of infertility in monkeys with endometriosis: luteinized unruptured follicles, luteal phase defects, pelvic adhesions, and spontaneous abortions, Fertil. Steril. 41:122-30 [1984]; Rier, S E et al., Endometriosis in rhesus monkeys (Macaca mulatta) following chronic exposure to tetrachlorodibenzo-p-dioxin, Fund. Appl. Toxicol. 21:433-41 [1993]; D'Hooghe, T D et al., Development of a model of retrograde menstruation in baboons (Papio anubis), Fertil. Steril. 62:635-38 [1994]). […] Therefore, a non-human primate model was selected, because monkeys and baboons spontaneously develop endometriosis, the pathophysiology of the disease resembles humans and abundant tissue can be obtained for study purposes. In particular, nulliparous female cynomolgus monkeys (Macaca fascicularis) were the animals chosen.
The effects of subchronic exposure to an AhR binding ligand was examined in a non-human primate model. Endometrial fragments were surgically autotransplanted to the pelvic cavity of nulliparous cynomolgus monkeys (Macaca fascicularis, n=23). Briefly, each monkey's own endometrial tissue was obtained during a laparotomy in which the body of the uterus was opened in the anterior midline. A strip of endometrium was removed by careful dissection and divided into a number of equal pieces, one of which was used for histopathology to confirm the presence of both endometrial epithelium and stroma. […]
The monkeys were divided into 4 treatment groups and dosed five days a week with gelatin capsules containing 0, 1, 5 or 25 ng/kg body mass of AhR binding ligand 2,3,7,8-tetrachlorodibenzo-p-dioxin (TCDD), mixed with glucose. Endometriotic implant survival and diameter were monitored by laparoscopy at intervals of one, three, six and 12 months.

endometriosis = settings: rodents and monkeys; cited from earlier work
estrogen metabolites = settings: oral administration, women; cited from earlier work
[1] = target: T1, aryl hydrocarbon receptor (Homo sapiens, UniProt P35869); settings: in culture; cited from earlier work
T1 sequence (P35869 11-848): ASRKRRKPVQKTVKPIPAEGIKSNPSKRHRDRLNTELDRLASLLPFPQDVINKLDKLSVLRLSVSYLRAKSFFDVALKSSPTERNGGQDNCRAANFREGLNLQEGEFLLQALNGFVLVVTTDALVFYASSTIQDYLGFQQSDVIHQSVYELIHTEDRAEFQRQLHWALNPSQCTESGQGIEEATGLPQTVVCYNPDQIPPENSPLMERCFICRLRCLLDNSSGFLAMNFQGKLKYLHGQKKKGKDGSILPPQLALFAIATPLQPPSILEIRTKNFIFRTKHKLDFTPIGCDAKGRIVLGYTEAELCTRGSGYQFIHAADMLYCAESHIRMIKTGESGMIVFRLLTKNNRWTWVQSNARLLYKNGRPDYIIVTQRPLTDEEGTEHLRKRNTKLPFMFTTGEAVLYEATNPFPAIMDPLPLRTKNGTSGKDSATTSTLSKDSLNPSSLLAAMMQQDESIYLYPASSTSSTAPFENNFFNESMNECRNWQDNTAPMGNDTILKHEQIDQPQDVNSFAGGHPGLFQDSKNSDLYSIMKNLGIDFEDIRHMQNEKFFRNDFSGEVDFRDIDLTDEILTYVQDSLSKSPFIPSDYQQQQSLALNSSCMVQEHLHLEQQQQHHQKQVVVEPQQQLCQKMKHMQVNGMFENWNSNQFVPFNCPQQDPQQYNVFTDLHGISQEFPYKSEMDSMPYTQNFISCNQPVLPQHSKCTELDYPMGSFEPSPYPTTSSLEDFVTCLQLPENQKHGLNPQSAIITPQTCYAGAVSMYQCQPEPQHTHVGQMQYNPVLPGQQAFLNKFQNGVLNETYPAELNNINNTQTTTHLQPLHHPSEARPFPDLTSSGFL

Fc1ccc2[nH]cc(Cc3c[nH]c4ccccc34)c2c1 [5-fluoro-diindolylmethane]
Uterine wet weight as a percentage of body weight (uterus): increase

Clc1cc2c(cc1Cl)Oc1cc(Cl)c(Cl)cc1O2 [TCDD, 2,3,7,8-tetrachlorodibenzo-p-dioxin]
Endometriotic lesion diameter (endometriotic tissue; 0.71 ng/kg/day TCDD, oral gelatin capsules): 4.2±0.9 mm | Endometriotic lesion survival rate (endometriotic tissue; 0.71 ng/kg/day TCDD, oral, control 16%): 20% | Endometriotic lesion survival rate (endometriotic tissue; 3.57 ng/kg/day TCDD for one year, oral, control 16.0%): 26.7% | Endometriotic lesion diameter (endometriotic tissue; 17.86 ng/kg/day TCDD for one year, oral): 14.5±0.2 mm | Endometriotic lesion survival rate (endometriotic tissue; 17.86 ng/kg/day TCDD for one year, oral, control 16.0%): 33.3% | Effect on endometriosis (endometriosis): promoted endometriosis

OCc1c[nH]c2ccccc12 [indole-3-carbinol]
Levels of estrogen metabolites (estrogen metabolites): reduce levels of estrogen metabolites

NCCc1c[nH]c2ccccc12 [tryptamine]
Binding to and activation of aryl hydrocarbon receptor [1]: bind to and activate

N[C@@H](Cc1c[nH]c2ccccc12)C(=O)O [tryptophan]
Binding to and activation of aryl hydrocarbon receptor [1]: bind to and activate
